Measured values: patent US8008303B2, “Biphenyl derivatives and their use in treating hepatitis C” (AstraZeneca AB, priority 2005, dated 2011)

Key:
[1] = system: HCV replicon cells Huh 9B; type: cell-based; conditions: concentration reducing total cell area by 50% relative to DMSO controls; methylene blue, absorbance 620 nm; 72 h incubation
[2] = system: HCV replicon cells Huh 9B; test: HCV replicon assay (luciferase readout); type: cell-based; conditions: concentration reducing replicon level (luciferase activity) by 50% vs untreated cell control, 72 h incubation
Outline: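 Compounds, made up at twice final strength (final DMSO 1%), were added to subgenomic replicon cells one day after plating. Incubation then ran 72 h at 37 °C, 5% CO2, without G418. Replication was quantified as firefly luciferase luminescence in lysed cells, with cytotoxicity assessed on a duplicate clear plate.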

Row | Structure (SMILES) | TD50 [1] | IC50 ([2]; Hepatitis C virus, 72 h) | IC50 [2]
1 | Cc1ccc(NC(=O)c2ccc(N3CCOCC3)cc2)cc1-c1ccc(C(=O)NCc2cccc(Br)c2)cc1 [Example 88, 2′-Methyl-5′-(4-morpholin-4-yl-benzoylamino)-biphenyl-4-carboxylic acid 3-bromo-benzylamide] | ** (** > 50 μM) | 1 to 5 µM | 
2 | Cc1cccc(CNC(=O)c2ccc(-c3cc(NC(=O)c4ccc(N5CCOCC5)cc4)ccc3C)cc2)c1 [Example 89, 2′-Methyl-5′-(4-morpholin-4-yl-benzoylamino)-biphenyl-4-carboxylic acid 3-methyl-benzylamide] | ** (** > 50 μM) | 1 to 5 µM | 
3 | Cc1ccc(NC(=O)c2ccc(N3CCOCC3)cc2)cc1-c1ccc(C(=O)Nc2ccc(Br)c(Cl)c2)cc1 [Example 90, 2′-Methyl-5′-(4-morpholin-4-yl-benzoylamino)-biphenyl-4-carboxylic acid (4-bromo-3-chloro-phenyl)-amide] | ** (** > 50 μM) | > 5 µM | 
4 | COc1cccc(NC(=O)c2ccc(-c3cc(NC(=O)c4ccc(N5CCOCC5)cc4)ccc3C)cc2)c1 [Example 91, 2′-Methyl-5′-(4-morpholin-4-yl-benzoylamino)-biphenyl-4-carboxylic acid (3-methoxy-phenyl)-amide] | ** (** > 50 μM) | 1 to 5 µM | 
5 | Cc1ccc(NC(=O)c2ccc(N3CCOCC3)cc2)cc1-c1ccc(C(=O)NCc2cccc(OC(F)(F)F)c2)cc1 [Example 92, 2′-Methyl-5′-(4-morpholin-4-yl-benzoylamino)-biphenyl-4-carboxylic acid 3-trifluoromethoxy-benzylamide] | ** (** > 50 μM) | 1 to 5 µM | 
6 | Cc1ccc(NC(=O)c2ccc(N3CCOCC3)cc2)cc1-c1ccc(C(=O)Nc2ccc3cc[nH]c3c2)cc1 [Example 93, 2′-Methyl-5′-(4-morpholin-4-yl-benzoylamino)-biphenyl-4-carboxylic acid (1H-indol-6-yl)-amide] | ** (** > 50 μM) | < 1 µM | 
7 | Cc1ccc(NC(=O)c2ccc(N3CCOCC3)cc2)cc1-c1ccc(C(=O)NCc2cccc(Cl)c2)cc1 [Example 94, 2′-Methyl-5′-(4-morpholin-4-yl-benzoylamino)-biphenyl-4-carboxylic acid 3-chloro-benzylamide] | ** (** > 50 μM) | 1 to 5 µM | 
8 | Cc1ccc(CNC(CO)Cc2cnc[nH]2)cc1-c1ccc(C(=O)Nc2ccc(N3CCOCC3)cc2)cc1 (stereo not shown) [Example 95, 5′-{[1-Hydroxymethyl-2-(3H-imidazol-4-yl)-ethylamino]-methyl}-2′-methyl-biphenyl-4-carboxylic acid (4-morpholin-4-yl-phenyl)-amide] | * (* < 50 μM) | 1 to 5 µM | 
9 | Cc1ccc(C(=O)Nc2ccc(N3CCOCC3)cc2)cc1-c1ccc(CNCc2cccc(Cl)c2)cc1 [Example 96, 4′-[(3-Chloro-benzylamino)-methyl]-6-methyl-biphenyl-3-carboxylic acid (4-morpholin-4-yl-phenyl)-amide] | ** (** > 50 μM) | 1 to 5 µM | 
10 | Cc1ccc(C(=O)Nc2ccc(N3CCOCC3)cc2)cc1-c1ccc(CNc2ccc3cn[nH]c3c2)cc1 [Example 97, 4′-[(1H-Indazol-6-ylamino)-methyl]-6-methyl-biphenyl-3-carboxylic acid (4-morpholin-4-yl-phenyl)-amide] | ** (** > 50 μM) | 1 to 5 µM | 
11 | Cc1ccc(C(=O)Nc2ccc(N3CCOCC3)cc2)cc1-c1ccc(CNC2CC2)cc1 [Example 98, 4′-Cyclopropylaminomethyl-6-methyl-biphenyl-3-carboxylic acid (4-morpholin-4-yl-phenyl)-amide] | * (* < 50 μM) | 1 to 5 µM | 
12 | Cc1ccc(C(=O)Nc2ccc(N3CCOCC3)cc2)cc1-c1ccc(CN[C@@H](CO)C(=O)O)cc1 [Example 99, (S)-3-Hydroxy-2-{[2′-methyl-5′-(4-morpholin-4-yl-phenylcarbamoyl)-biphenyl-4-ylmethyl]-amino}-propionic acid] | ** (** > 50 μM) | 1 to 5 µM | 
13 | Cc1ccc(C(=O)Nc2ccc(N3CCOCC3)cc2)cc1-c1ccc(CNCCc2cnc[nH]2)cc1 [Example 100, 4′-{[2-(3H-Imidazol-4-yl)-ethylamino]-methyl}-6-methyl-biphenyl-3-carboxylic acid (4-morpholin-4-yl-phenyl)-amide] | ** (** > 50 μM) | 1 to 5 µM | 
14 | Cc1ccc(C(=O)Nc2ccc(N3CCOCC3)cc2)cc1-c1ccc(CNC(CO)Cc2cnc[nH]2)cc1 (stereo not shown) [Example 101, 4′-{[1-Hydroxymethyl-2-(3H-imidazol-4-yl)-ethylamino]-methyl}-6-methyl-biphenyl-3-carboxylic acid (4-morpholin-4-yl-phenyl)-amide] | * (* < 50 μM) | < 1 µM | 
15 | Cc1ccc(C(=O)Nc2ccc(N3CCOCC3)cc2)cc1-c1ccc(CNCCN(C)C)cc1 [Example 102, 4′-[(2-Dimethylamino-ethylamino)-methyl]-6-methyl-biphenyl-3-carboxylic acid (4-morpholin-4-yl-phenyl)-amide] | * (* < 50 μM) | 1 to 5 µM | 
16 | Cc1ccc(C(=O)Nc2ccc(N3CCOCC3)cc2)cc1-c1ccc(NC(=O)c2cccc(Br)c2)cc1 [Example 103, 4′-(3-Bromo-benzoylamino)-6-methyl-biphenyl-3-carboxylic acid (4-morpholin-4-yl-phenyl)-amide] | ** (** > 50 μM) | 1 to 5 µM | 
17 | Cc1ccc(C(=O)Nc2ccc(N3CCOCC3)cc2)cc1-c1ccc(NC(=O)c2nc3ccccc3nc2O)cc1 [Example 104, 3-Hydroxy-quinoxaline-2-carboxylic acid [2′-methyl-5′-(4-morpholin-4-yl-phenylcarbamoyl)-biphenyl-4-yl]-amide] | ** (** > 50 μM) | 1 to 5 µM | 
18 | Cc1ccc(C(=O)Nc2ccc(N3CCOCC3)cc2)cc1-c1ccc(NC(=O)CNC(=O)c2ccccc2)cc1 [Example 105, 4′-(2-Benzoylamino-acetylamino)-6-methyl-biphenyl-3-carboxylic acid (4-morpholin-4-yl-phenyl)-amide] | ** (** > 50 μM) | 1 to 5 µM | 
19 | Cc1ccc(C(=O)Nc2ccc(N3CCOCC3)cc2)cc1-c1ccc(NC(=O)Cc2cccc(Cl)c2)cc1 [Example 106, 4′-[2-(3-Chloro-phenyl)-acetylamino]-6-methyl-biphenyl-3-carboxylic acid (4-morpholin-4-yl-phenyl)-amide] | ** (** > 50 μM) | 1 to 5 µM | 
20 | COc1cccc(C(=O)Nc2ccc(-c3cc(C(=O)Nc4ccc(N5CCOCC5)cc4)ccc3C)cc2)c1 [Example 107, 4′-(3-Methoxy-benzoylamino)-6-methyl-biphenyl-3-carboxylic acid (4-morpholin-4-yl-phenyl)-amide] | ** (** > 50 μM) | < 1 µM | 
21 | Cc1ccc(NC(=O)c2cn[nH]c2)cc1-c1ccc(C(=O)Nc2ccc(N3CCOCC3)cc2)cc1 [Example 108, 1H-Pyrazole-4-carboxylic acid [6-methyl-4′-(4-morpholin-4-yl-phenylcarbamoyl)-biphenyl-3-yl]-amide] | ** (** > 50 μM) | 1 to 5 µM | 
22 | Cc1ccc(C(=O)Nc2ccc(N3CCOCC3)cc2)cc1-c1ccc(NC(=O)c2ccccc2O)cc1 [Example 109, 4′-(2-Hydroxy-benzoylamino)-6-methyl-biphenyl-3-carboxylic acid (4-morpholin-4-yl-phenyl)-amide] | * (* < 50 μM) | 1 to 5 µM | 
23 | COc1ccc(C(=O)Nc2ccc(-c3cc(C(=O)Nc4ccc(N5CCOCC5)cc4)ccc3C)cc2)cc1OC [Example 110, 4′-(3,4-Dimethoxy-benzoylamino)-6-methyl-biphenyl-3-carboxylic acid (4-morpholin-4-yl-phenyl)-amide] | ** (** > 50 μM) | 1 to 5 µM | 
24 | Cc1ccc(C(=O)Nc2ccc(N3CCOCC3)cc2)cc1-c1ccc(NC(=O)c2cnccc2C(F)(F)F)cc1 [Example 111, N-[2′-Methyl-5′-(4-morpholin-4-yl-phenylcarbamoyl) -biphenyl-4-yl]-4-trifluoromethyl-nicotinamide] | ** (** > 50 μM) | > 5 µM | 
25 | COc1cccc(C(=O)Nc2ccc(-c3cc(C(=O)Nc4ccc(N5CCOCC5)cc4)ccc3C)cc2)c1 [Example 112, 4′-(3-Methoxy-benzoylamino)-6-methyl-biphenyl-3-carboxylic acid (4-morpholin-4-yl-phenyl)-amide] | * (* < 50 μM) |  | 1 to 5 µM
26 | Cc1cc(NC(=O)C2CC2)ccc1-c1cccc(C(=O)Nc2ccc(N3CCOCC3)cc2)c1 [Example 113, 4′-(Cyclopropanecarbonyl-amino)-2′-methyl-biphenyl-3-carboxylic acid (4-morpholin-4-yl-phenyl)-amide] | * (* < 50 μM) | > 5 µM | 
27 | Cc1cc(NC(=O)c2ccco2)ccc1-c1cccc(C(=O)Nc2ccc(N3CCOCC3)cc2)c1 [Example 114, Furan-2-carboxylic acid [2-methyl-3′-(4-morpholin-4-yl-phenylcarbamoyl)-biphenyl-4-yl]-amide] | * (* < 50 μM) | > 5 µM | 
28 | COc1ccccc1C(=O)Nc1ccc(-c2cccc(C(=O)Nc3ccc(N4CCOCC4)cc3)c2)c(C)c1 [Example 115, 4′-(2-Methoxy-benzoylamino)-2′-methyl-biphenyl-3-carboxylic acid (4-morpholin-4-yl-phenyl)-amide] | * (* < 50 μM) | 1 to 5 µM | 
29 | COc1cccc(C(=O)Nc2ccc(-c3cccc(C(=O)Nc4ccc(N5CCOCC5)cc4)c3)c(C)c2)c1 [Example 116, 4′-(3-Methoxy-benzoylamino)-2′-methyl-biphenyl-3-carboxylic acid (4-morpholin-4-yl-phenyl)-amide] | * (* < 50 μM) | 1 to 5 µM | 
